PMC4042408 (ACS chemical biology, 2013)

Experiments:
serine hydrolases = experiment: Competitive ABPP-MudPIT of brain and peripheral tissues; assay type: in vivo, mouse
HSL = target: T1, HSL (Mus musculus, UniProt P54310); experiment: Gel-based competitive ABPP; assay type: biochemical
T1 sequence (P54310 1-759): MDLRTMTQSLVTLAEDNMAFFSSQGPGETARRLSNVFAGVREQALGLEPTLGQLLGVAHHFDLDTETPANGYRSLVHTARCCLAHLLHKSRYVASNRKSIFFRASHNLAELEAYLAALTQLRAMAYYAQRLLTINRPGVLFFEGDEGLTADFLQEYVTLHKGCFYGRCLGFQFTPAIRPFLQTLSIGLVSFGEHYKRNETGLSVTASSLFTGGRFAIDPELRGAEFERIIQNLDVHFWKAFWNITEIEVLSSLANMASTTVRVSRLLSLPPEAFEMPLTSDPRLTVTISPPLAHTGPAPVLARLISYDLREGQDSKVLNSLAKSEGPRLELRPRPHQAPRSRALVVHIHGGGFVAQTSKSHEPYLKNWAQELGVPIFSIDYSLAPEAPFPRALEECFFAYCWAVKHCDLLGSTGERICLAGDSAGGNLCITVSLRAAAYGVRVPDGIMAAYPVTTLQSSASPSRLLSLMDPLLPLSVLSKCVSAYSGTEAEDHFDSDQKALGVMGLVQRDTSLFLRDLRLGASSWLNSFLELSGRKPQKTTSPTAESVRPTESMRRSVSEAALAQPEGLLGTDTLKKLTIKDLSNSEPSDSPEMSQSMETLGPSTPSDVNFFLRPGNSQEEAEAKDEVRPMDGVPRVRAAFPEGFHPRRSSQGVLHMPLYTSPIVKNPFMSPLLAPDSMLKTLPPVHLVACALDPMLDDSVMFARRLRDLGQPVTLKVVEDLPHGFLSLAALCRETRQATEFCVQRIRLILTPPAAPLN

CES1 = target: T2, CES1 (Mus musculus, UniProt Q8VCC2); experiment: Gel-based competitive ABPP; assay type: biochemical
T2 sequence (Q8VCC2 19-565): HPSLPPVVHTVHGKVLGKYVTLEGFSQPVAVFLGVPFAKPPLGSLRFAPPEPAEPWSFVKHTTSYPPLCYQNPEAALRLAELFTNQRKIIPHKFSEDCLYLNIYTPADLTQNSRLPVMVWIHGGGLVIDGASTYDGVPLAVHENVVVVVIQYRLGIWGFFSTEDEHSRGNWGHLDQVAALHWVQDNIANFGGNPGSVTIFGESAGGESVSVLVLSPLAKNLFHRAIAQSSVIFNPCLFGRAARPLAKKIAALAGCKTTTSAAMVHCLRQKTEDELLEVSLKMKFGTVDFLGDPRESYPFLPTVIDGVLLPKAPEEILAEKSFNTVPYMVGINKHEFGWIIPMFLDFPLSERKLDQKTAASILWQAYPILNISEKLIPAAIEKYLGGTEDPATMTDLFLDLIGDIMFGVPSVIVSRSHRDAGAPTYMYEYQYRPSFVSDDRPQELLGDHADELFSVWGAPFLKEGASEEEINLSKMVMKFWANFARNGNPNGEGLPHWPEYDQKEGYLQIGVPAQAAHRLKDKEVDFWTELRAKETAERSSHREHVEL

CES2 = experiment: Gel-based competitive ABPP; assay type: biochemical
APEH = target: T3, APEH (Mus musculus, UniProt Q8R146); experiment: Gel-based competitive ABPP; assay type: biochemical; conditions: mouse brain proteome
T3 sequence (Q8R146 1-732): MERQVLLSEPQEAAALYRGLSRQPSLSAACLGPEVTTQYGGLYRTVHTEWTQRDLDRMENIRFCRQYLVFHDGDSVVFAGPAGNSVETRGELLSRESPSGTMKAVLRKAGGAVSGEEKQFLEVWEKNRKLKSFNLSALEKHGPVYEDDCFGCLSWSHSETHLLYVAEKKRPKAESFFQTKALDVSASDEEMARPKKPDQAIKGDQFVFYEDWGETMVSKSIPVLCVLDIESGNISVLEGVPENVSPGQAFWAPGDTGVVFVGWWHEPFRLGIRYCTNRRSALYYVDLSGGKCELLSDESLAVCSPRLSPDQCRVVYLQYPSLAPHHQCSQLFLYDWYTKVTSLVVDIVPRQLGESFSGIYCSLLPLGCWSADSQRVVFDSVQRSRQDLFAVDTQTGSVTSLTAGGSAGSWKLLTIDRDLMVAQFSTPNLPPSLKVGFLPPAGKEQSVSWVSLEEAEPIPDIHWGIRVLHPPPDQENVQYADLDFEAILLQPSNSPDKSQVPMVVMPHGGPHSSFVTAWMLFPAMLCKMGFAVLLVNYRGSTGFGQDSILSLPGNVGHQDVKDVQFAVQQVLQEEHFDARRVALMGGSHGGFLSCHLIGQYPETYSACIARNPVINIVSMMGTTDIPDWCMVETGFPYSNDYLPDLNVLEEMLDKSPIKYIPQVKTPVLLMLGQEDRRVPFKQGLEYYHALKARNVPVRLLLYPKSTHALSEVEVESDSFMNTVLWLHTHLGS

ABHD6 = target: T4, ABHD6 (Mus musculus, UniProt Q8R2Y0); experiment: Gel-based competitive ABPP; assay type: biochemical
T4 sequence (Q8R2Y0 1-336): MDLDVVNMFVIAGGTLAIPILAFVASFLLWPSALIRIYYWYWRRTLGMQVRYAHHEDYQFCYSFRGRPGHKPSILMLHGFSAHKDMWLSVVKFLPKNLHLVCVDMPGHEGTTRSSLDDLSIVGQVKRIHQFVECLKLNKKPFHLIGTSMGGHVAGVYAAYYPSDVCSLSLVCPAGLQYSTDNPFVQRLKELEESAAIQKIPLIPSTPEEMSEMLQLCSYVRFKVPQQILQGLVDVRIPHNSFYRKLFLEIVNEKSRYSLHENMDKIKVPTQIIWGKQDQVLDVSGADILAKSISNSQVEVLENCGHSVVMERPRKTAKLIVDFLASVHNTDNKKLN

CES3 = target: T5, CES3 (Mus musculus, UniProt Q8VCT4); experiment: Gel-based competitive ABPP; assay type: biochemical
T5 sequence (Q8VCT4 19-565): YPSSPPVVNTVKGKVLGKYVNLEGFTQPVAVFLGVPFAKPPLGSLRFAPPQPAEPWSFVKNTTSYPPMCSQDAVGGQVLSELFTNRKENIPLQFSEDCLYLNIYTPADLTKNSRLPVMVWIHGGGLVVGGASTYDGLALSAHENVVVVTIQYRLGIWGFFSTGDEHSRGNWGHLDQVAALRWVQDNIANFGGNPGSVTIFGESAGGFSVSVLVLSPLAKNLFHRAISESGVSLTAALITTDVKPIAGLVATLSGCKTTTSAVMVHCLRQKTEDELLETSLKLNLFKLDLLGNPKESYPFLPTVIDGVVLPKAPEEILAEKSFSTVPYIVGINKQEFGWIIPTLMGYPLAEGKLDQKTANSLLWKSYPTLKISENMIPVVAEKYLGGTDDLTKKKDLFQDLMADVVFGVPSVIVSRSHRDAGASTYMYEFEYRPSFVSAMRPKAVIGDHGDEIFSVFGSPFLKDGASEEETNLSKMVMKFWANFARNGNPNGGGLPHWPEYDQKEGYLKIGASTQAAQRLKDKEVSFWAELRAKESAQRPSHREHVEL

ABHD3 = target: T6, ABHD3 (Mus musculus, UniProt Q91ZH7); experiment: Gel-based competitive ABPP; assay type: biochemical
T6 sequence (Q91ZH7 1-411): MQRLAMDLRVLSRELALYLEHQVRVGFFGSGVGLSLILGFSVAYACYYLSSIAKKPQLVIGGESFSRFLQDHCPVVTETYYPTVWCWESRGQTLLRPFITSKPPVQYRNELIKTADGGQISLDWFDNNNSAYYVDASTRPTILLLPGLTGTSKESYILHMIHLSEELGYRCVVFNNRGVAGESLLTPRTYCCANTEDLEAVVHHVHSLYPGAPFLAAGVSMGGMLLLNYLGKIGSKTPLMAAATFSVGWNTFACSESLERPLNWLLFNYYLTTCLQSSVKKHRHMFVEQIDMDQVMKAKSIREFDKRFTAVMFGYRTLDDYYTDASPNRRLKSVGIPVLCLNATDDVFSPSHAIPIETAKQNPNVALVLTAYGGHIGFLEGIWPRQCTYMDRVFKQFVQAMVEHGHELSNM

KIAA1363 = target: T7, KIAA1363 (Mus musculus, UniProt Q8BLF1); experiment: Gel-based competitive ABPP; assay type: biochemical
T7 sequence (Q8BLF1 1-408): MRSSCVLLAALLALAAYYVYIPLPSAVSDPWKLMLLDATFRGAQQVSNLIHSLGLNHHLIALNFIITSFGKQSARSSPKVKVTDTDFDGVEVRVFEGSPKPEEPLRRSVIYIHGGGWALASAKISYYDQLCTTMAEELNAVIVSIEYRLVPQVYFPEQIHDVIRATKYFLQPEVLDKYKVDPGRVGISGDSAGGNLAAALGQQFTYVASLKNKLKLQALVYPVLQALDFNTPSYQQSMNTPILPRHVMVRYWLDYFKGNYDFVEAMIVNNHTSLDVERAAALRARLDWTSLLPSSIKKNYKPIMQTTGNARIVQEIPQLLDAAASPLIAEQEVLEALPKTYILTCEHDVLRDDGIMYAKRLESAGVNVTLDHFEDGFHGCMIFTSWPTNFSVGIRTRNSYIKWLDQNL

[1] = system: C20:4 LPA hydrolytic activity of mouse brain proteomes; assay type: biochemical; conditions: inhibitor 1 μM, 30 min, 37°C

CCOP(=S)(OCC)Oc1nc(Cl)c(Cl)cc1Cl [CPF, chlorpyrifos]
additional serine hydrolases not found in the brain (AADAC, CES1, CES1F, CES2, CES2B, CES2G, CES3, CES5, CES6, ES22, BChE) in peripheral tissues (serine hydrolases; CPF-treated mice, peripheral tissues): blocked
total number of metabolic serine hydrolases inhibited in vivo (serine hydrolases; mice, brain and peripheral tissues, CPF 50 mg/kg ip, 4 h): twenty-one

CCOP(=O)(OCC)Oc1nc(Cl)c(Cl)cc1Cl [CPO, chlorpyrifos-oxon]
IC50 compared to that of ACHE (HSL): equivalent or lower
IC50 compared to that of ACHE (CES1): equivalent or lower
IC50 compared to that of ACHE (CES2): equivalent or lower
IC50 compared to that of ACHE (APEH): equivalent or lower
IC50 compared to that of ACHE (ABHD6): equivalent or lower
IC50 compared to that of ACHE (CES3): comparable
IC50 compared to that of ACHE (ABHD3): comparable
IC50 compared to that of ACHE (KIAA1363): comparable

O=C(Oc1ccc([N+](=O)[O-])cc1)N1CCC(C(O)(c2ccc3c(c2)OCO3)c2ccc3c(c2)OCO3)CC1 [JZL184]
C20:4 LPA hydrolytic activity (C20:4 FFA release) [1]: inhibits

O=C(Oc1ccc([N+](=O)[O-])cc1)N1CCN(Cc2cccc(Oc3ccccc3)c2)CC1 [JZL195]
C20:4 LPA hydrolytic activity (C20:4 FFA release) [1]: inhibits
